# From US20240208912A1 (Mirati Therapeutics, Inc., priority 2021, published 2024)
# Structures can show the parent of a compound that is named as a salt. Where two headings read alike, the source gives them in different places.
# Legend:
# [1] = tested on: HCT116 homozygous MTAP knockout cells; assay: Proliferation assay (CellTiter-Glo, 10 days) in HCT116 homozygous MTAP knockout cells; assay type: cell-based; conditions: CellTiter-Glo after 10 days of treatment, read-out: Proliferation IC50 (nM) HCT116 MTAP_KO
# Description: HCT116 cells were genetically engineered to knock out the function of both MTAP alleles using a CRISPR/Cas9 system and an sgRNA targeting the MTAP gene. Following Cas9/MTAP sgRNA transduction, clones were screened to confirm that each allele of the MTAP gene had been inactivated (i.e., homozygous MTAP knock out) creating an MTAP-deficient cell.
# Control samples were analyzed in parallel.
# Briefly, on Day 0, 250 HCT116 parental or HCT116 homozygous MTAP knockout cell were seeded in 96 well plates in McCoy's 5A supplemented with […] fetal bovine serum and pen/strep and the cells were incubated overnight at 37° C. plus 5% CO2.
# The following day, cells were treated with DMSO vehicle control or a dose response of PRMT5 inhibitors and incubated at 37 C plus 5% CO2 for five days. On Day 6, the cells were trypsinized and split 1:10 into new 96-well plates with fresh medium containing the same concentration of PRMT5 inhibitor and incubated for an additional 5 days at 37° C. plus 5% CO^2.
# On Day 11, the viability of the cells was measured using a CTG assay kit (CellTiter-Glo; Promega cat.no G7573) in accordance with the manufacturer's instructions. The IC50 values for each compound after 10 days of treatment were calculated using GraphPad PRISM software.
# PRMT5/MEP50 complex = molecular target: T1, PRMT5/MEP50 complex (Homo sapiens, UniProt O14744); assay: PRMT5:MEP50 HotSpot Assay (full-length histone H2A substrate, plus and minus MTA); assay type: biochemical; conditions: IC50 + 2 μM MTA, in the presence of 2 μM MTA
# T1 construct: purchased Reaction Biology Corporation
# Description: The PRMT5 inhibitory activity of compounds of the present invention was determined using either a PRMT5:MEP50 FlashPlate Assay (Reaction Biology Corporation) or a PRMT5:MEP50 HotSpot Assay (Reaction Biology Corporation).
# The assay uses recombinant full-length hi stone H2A as the PRMT5 substrate. […] The reaction was stopped and transferred to filter paper for detection. The amount of tritiated H2A in each sample was determined using a scintillation counter.
# T1 sequence (O14744 2-637 limits assumed): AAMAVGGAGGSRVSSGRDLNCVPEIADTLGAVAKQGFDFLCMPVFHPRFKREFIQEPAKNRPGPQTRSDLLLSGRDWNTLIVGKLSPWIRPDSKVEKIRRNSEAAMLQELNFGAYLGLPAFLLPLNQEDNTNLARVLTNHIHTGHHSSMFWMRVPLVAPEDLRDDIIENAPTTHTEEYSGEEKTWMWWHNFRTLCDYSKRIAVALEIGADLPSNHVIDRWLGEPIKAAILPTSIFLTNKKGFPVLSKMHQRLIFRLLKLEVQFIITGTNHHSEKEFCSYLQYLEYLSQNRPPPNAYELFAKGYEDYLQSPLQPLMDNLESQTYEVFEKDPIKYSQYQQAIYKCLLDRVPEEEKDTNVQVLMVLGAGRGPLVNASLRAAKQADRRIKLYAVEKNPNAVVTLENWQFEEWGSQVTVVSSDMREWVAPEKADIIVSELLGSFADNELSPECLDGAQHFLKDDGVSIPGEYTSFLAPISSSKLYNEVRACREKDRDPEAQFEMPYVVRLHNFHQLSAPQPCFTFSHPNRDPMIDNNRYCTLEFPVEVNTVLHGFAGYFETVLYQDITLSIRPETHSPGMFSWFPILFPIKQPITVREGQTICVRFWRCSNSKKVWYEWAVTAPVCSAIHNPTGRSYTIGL
# T1 sequence (Q9BQA1 2-342 partner limits assumed): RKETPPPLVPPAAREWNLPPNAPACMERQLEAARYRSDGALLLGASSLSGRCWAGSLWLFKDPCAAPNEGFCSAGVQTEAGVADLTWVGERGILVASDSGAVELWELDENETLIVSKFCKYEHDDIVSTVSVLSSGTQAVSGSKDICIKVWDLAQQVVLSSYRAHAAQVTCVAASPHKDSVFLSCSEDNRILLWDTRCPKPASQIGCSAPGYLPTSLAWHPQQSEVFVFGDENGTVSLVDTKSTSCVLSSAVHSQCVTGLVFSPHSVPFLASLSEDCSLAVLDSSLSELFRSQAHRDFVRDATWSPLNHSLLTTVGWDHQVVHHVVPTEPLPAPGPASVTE
Compound,IC50 [1] [nM],IC50 (PRMT5/MEP50 complex) [nM],"IC50 ([1]; Homo sapiens, HCT-116, 240 h) [nM]"
"Cn1ncc(-c2ccc3c(=O)[nH]nc(CN)c3c2)c1-c1c(F)c(Cl)c2c(c1C#N)OCCC2 (single isomer, unassigned) [Example 16-39, (P)-7-(4-(4-(aminomethyl)-1-oxo-1,2-dihydrophthalazin-6-yl)-1-methyl-1H-pyrazol-5-yl)-5-chloro-6-fluorochroman-8-carbonitrile]",517,366,–
"Cn1ncc(-c2ccc3c(=O)[nH]nc(CN)c3c2)c1-c1sc2c(C3CCCO3)cccc2c1C#N (stereo not drawn) [Example 12-21, 2-[4-[4-(aminomethyl)-1-oxo-2H-phthalazin-6-yl]-2-methyl-pyrazol-3-yl]-7-THF-2-yl-benzothiophene-3-carbonitrile hydrochloride]",–,128,126
"Cc1cc(OC2CC2)c(C#N)c(-c2c(-c3cc(Cl)c4c(=O)[nH]nc(CN)c4c3)cnn2C)c1F (single isomer, unassigned) [Example 16-25, (P)-2-[4-[4-(aminomethyl)-8-chloro-1-oxo-2H-phthalazin-6-yl]-2-methyl-pyrazol-3-yl]-6-(cyclopropoxy)-3-fluoro-4-methyl-benzonitrile]",664,964,–
"Cc1cc(OC2CC2)c(C#N)c(-c2c(-c3ccc4c(=O)[nH]nc(CN)c4c3)cnn2C)c1F (single isomer, unassigned) [Example 16-20, (M)-2-[4-[4-(aminomethyl)-1-oxo-2H-phthalazin-6-yl]-2-methyl-pyrazol-3-yl]-6-(cyclopropoxy)-3-fluoro-4-methyl-benzonitrile]",13,36,–
"Cc1sc(-c2c(-c3ccc4c(=O)[nH]nc(CN)c4c3)cnn2C)c(C#N)c1OC1CC1 [Example 4-276, 2-(4-(4-(aminomethyl)-1-oxo-1,2-dihydrophthalazin-6-yl)-1-methyl-1H-pyrazol-5-yl)-4-cyclopropoxy-5-methylthiophene-3-carbonitrile]",–,222,198
"COc1cccc2c(C#N)c(-c3c(-c4ccc5c(=O)[nH]nc(CN)c5c4)cnn3C)sc12 [Example 4-268, 2-[4-[4-(aminomethyl)-1-oxo-2H-phthalazin-6-yl]-2-methyl-pyrazol-3-yl]-7-methoxy-benzothiophene-3-carbonitrile]",–,165,201
"Cn1ncc(-c2ccc3c(=O)[nH]nc(C4CNC4)c3c2)c1-c1sc2ccccc2c1C#N [Example 9-12, 2-[4-[4-(azetidin-3-yl)-1-oxo-2H-phthalazin-6-yl]-2-methyl-pyrazol-3-yl]benzothiophene-3-carbonitrile]",–,4250,10000
"Cn1ncc(-c2ccc3c(=O)[nH]nc(CN)c3c2)c1-c1c(C#N)cc2ccccc2c1F (single isomer, unassigned) [Example 16-53, (P)-3-[4-[4-(aminomethyl)-1-oxo-2H-phthalazin-6-yl]-2-methyl-pyrazol-3-yl]-4-fluoro-naphthalene-2-carbonitrile]",752,157,–
"Cc1cc(-c2cnn(C)c2-c2c(F)cc3ncc(Cl)cc3c2C#N)cc2c(CN)n[nH]c(=O)c12 (single isomer, unassigned) [Example 16-50, (M)-6-[4-[4-(aminomethyl)-8-methyl-1-oxo-2H-phthalazin-6-yl]-2-methyl-pyrazol-3-yl]-3-chloro-7-fluoro-quinoline-5-carbonitrile]",9,36.4,–
"COCc1ccc2c(C#N)c(-c3c(-c4ccc5c(=O)[nH]nc(CN)c5c4)cnn3C)sc2c1 [Example 4-271, 2-(4-(4-(aminomethyl)-1-oxo-1,2-dihydrophthalazin-6-yl)-1-methyl-1H-pyrazol-5-yl)-6-(methoxymethyl)benzo[b]thiophene-3-carbonitrile]",–,–,289
"Cn1ncc(-c2ccc3c(=O)[nH]nc(CN)c3c2)c1-c1cc2ccccn2c1C#N [Example 4-227, 2-(4-(4-(aminomethyl)-1-oxo-1,2-dihydrophthalazin-6-yl)-1-methyl-1H-pyrazol-5-yl)indolizine-3-carbonitrile]",2370,–,–
"Cn1ncc(-c2ccc3c(=O)[nH]nc(CN)c3c2)c1-c1cc(Cl)c2c(c1C#N)OCCC2 [Example 4-261, 7-[4-[4-(aminomethyl)-1-oxo-2H-phthalazin-6-yl]-2-methyl-pyrazol-3-yl]-5-chloro-chromane-8-carbonitrile]",–,–,81
"Cn1ncc(-c2ccc3c(=O)[nH]nc(C4(N)COC4)c3c2)c1-c1sc2ccccc2c1C#N [Example 9-9, 2-(4-(4-(3-aminooxetan-3-yl)-1-oxo-1,2-dihydrophthalazin-6-yl)-1-methyl-1H-pyrazol-5-yl)benzo[b]thiophene-3-carbonitrile]",–,–,10000

# The next lines start with the values.
IC50 [1] [nM],IC50 (PRMT5/MEP50 complex) [nM],"IC50 ([1]; Homo sapiens, HCT-116, 240 h) [nM]",Compound
17,139,–,"CCOc1cc(-c2cnn(C)c2-c2c(F)c(Cl)cc(OC3CC3)c2C#N)cc2c(CN)n[nH]c(=O)c12 (single isomer, unassigned) [Example 16-78, (M)-2-[4-[4-(aminomethyl)-8-ethoxy-1-oxo-2H-phthalazin-6-yl]-2-methyl-pyrazol-3-yl]-4-chloro-6-(cyclopropoxy)-3-fluoro-benzonitrile]"
80,217,–,"Cn1ncc(-c2cc(Cl)c3c(=O)[nH]nc(CN)c3c2)c1-c1c(F)cc2ncc(Cl)cc2c1C#N (single isomer, unassigned) [Example 16-61, (P)-6-[4-[4-(aminomethyl)-8-chloro-1-oxo-2H-phthalazin-6-yl]-2-methyl-pyrazol-3-yl]-3-chloro-7-fluoro-quinoline-5-carbonitrile]"
173,181,–,"Cn1ncc(-c2ccc3c(=O)[nH]nc(CN)c3c2)c1-c1c(F)cc2c(c1C#N)OCO2 (atropisomer, axis not shown; (M)) [Example 16-88, (M)-5-[4-[4-(aminomethyl)-1-oxo-2H-phthalazin-6-yl]-2-methyl-pyrazol-3-yl]-6-fluoro-1,3-benzodioxole-4-carbonitrile]"
10200,6540,–,"Cn1ncc(-c2ccc3c(=O)[nH]nc(CN)c3c2)c1-c1c(C#N)ccc2c1COC2 (single isomer, unassigned) [Example 16-69, (M)-4-[4-[4-(aminomethyl)-1-oxo-2H-phthalazin-6-yl]-2-methyl-pyrazol-3-yl]-1,3-dihydroisobenzofuran-5-carbonitrile]"
13,415,–,"CCOc1cc(-c2cnn(C)c2-c2c(F)c(Cl)c3ccccc3c2C#N)cc2c(CN)n[nH]c(=O)c12 (single isomer, unassigned) [Example 16-80, (M)-2-[4-[4-(aminomethyl)-8-ethoxy-1-oxo-2H-phthalazin-6-yl]-2-methyl-pyrazol-3-yl]-4-chloro-3-fluoro-naphthalene-1-carbonitrile]"
–,647,1030,"N#Cc1c(-c2c(-c3ccc4c(=O)[nH]nc(CN)c4c3)cnn2C(F)(F)F)sc2ccccc12 [Example 19-4, 2-(4-(4-(aminomethyl)-1-oxo-1,2-dihydrophthalazin-6-yl)-1-(trifluoromethyl)-1H-pyrazol-5-yl)benzo[b]thiophene-3-carbonitrile]"
514,1360,–,"Cn1ncc(-c2ccc3c(=O)[nH]nc(CN)c3c2)c1-c1c(F)cc2c(c1C#N)OCCO2 (single isomer, unassigned) [Example 16-89, (P)-6-[4-[4-(aminomethyl)-1-oxo-2H-phthalazin-6-yl]-2-methyl-pyrazol-3-yl]-7-fluoro-2,3-dihydro-1,4-benzodioxine-5-carbonitrile]"
2670,454,–,"Cn1ncc(-c2ccc3c(=O)[nH]nc(CN)c3c2)c1-c1c(C#N)cc2ncccc2c1F (single isomer, unassigned) [Example 16-91, (P)-6-[4-[4-(aminomethyl)-1-oxo-2H-phthalazin-6-yl]-2-methyl-pyrazol-3-yl]-5-fluoro-quinoline-7-carbonitrile]"
462,542,–,"Cn1ncc(-c2ccc3c(=O)[nH]nc(CN)c3c2)c1-c1c(C#N)ccc2c1COC2 (single isomer, unassigned) [Example 16-70, (P)-4-[4-[4-(aminomethyl)-1-oxo-2H-phthalazin-6-yl]-2-methyl-pyrazol-3-yl]-1,3-dihydroisobenzofuran-5-carbonitrile]"
215,318,–,"Cc1c(F)c(-c2c(-c3cc(Cl)c4c(=O)[nH]nc(CN)c4c3)cnn2C)c(C#N)c2ccccc12 (single isomer, unassigned) [Example 16-59, (P)-2-[4-[4-(aminomethyl)-8-chloro-1-oxo-2H-phthalazin-6-yl]-2-methyl-pyrazol-3-yl]-3-fluoro-4-methyl-naphthalene-1-carbonitrile]"
